Assay [1] concerns co-culture model of human muscle cells and neurons from the spinal marrow of rat embryos. The assay is described as follows: Efficacy test: frequency of muscle contractions in a nerve-muscle co-culture model. It counts as cell-based, human (myoblasts), rat (embryo spinal explants). Particulars: for Variation Δ [in %] of the number of muscle contractions (1 min): 1 minute after incubation; for Variation Δ [in %] of the number of muscle contractions (1 min) / Variation Δ [in %] of the number of muscle contractions (2 h) / Variation Δ [in %] of the number of muscle contractions (48 h): contractions counted for 30 seconds, compared to number before incubation, means of 3 measurements; for Variation Δ [in %] of the number of muscle contractions (2 h): 2 hours after incubation; for Variation Δ [in %] of the number of muscle contractions (48 h): 48 hours after incubation. As for the experimental part:
Culture conditions: 37° C., 5% CO2 In order to test the efficacy of the compounds of the present invention, a co-culture model of human muscle cells on one hand and neurons from the spinal marrow of rat embryos on the other hand was established. Normal human muscle cells (myoblasts) were cultured in gelatine-coated 24-well plates until a monolayer of myofibrils (from fused muscle cells) had formed. Afterwards, an explant of the spinal marrow of a 13 day-old rat embryo with dorsal root ganglia was placed on the muscle cell monolayer. After one day of co-culture, the first axons were seen to grow out of the explant to come in contact with muscle cells. The first contractions appeared after 5 days. […] At this stage of development, the myofibrils performed regular contractions and the model was used for the tests.

In assay [2] the test system is Ca++-dependent neurotransmitter release in the synapses. Particulars: cited from earlier work.

Non-standard residues stand in square brackets, D forms with d. Residues, ends and D or L forms follow the SMILES beside them. *: point of attachment. NHPhenethyl = c1ccc(CCN*)cc1; Dap = NC[CH](N)C(=O)O; NHBn = c1ccc(CN*)cc1

Consider `CC(N)C(=O)N1CCCC1C(=O)NC(CCCNC(=N)N)C(=O)NCc1ccccc1` (stereo not drawn) [4.2] (H-Ala-Pro-Arg-NHBn; configuration not given here), for which, in assay [1] (0.1 mM), the “Variation Δ [in %] of the number of muscle contractions (1 min)” value (“Variation Δ [in %] of the number … (1 min)” for short) was 85%, the “Variation Δ [in %] of the number of muscle contractions (2 h)” value (“Variation Δ [in %] of the number … (2 h)” for short) amounted to 78% and the “Variation Δ [in %] of the number of muscle contractions (48 h)” value (shortened to “Variation Δ [in %] of the number … (48 h)”) worked out at 37%. Also, in assay [1] (0.5 mM), the “Variation Δ [in %] of the number … (1 min)” value worked out at 93%, the “Variation Δ [in %] of the number … (2 h)” value is recorded as 37% and the “Variation Δ [in %] of the number … (48 h)” value is reported as 36%. Further, in assay [1] (1.0 mM), the “Variation Δ [in %] of the number … (1 min)” value came out at 85%, the “Variation Δ [in %] of the number … (2 h)” value is 12% and the “Variation Δ [in %] of the number … (48 h)” value worked out at 60%.
Regarding `CC(N)C(=O)N1CCCC1C(=O)NC(CCCNC(=N)N)C(=O)NC(CCCNC(=N)N)C(=O)NCc1ccccc1` (stereo not shown) [4.3] (H-APRR-NHBn; configuration not given here), in assay [1] (0.1 mM), the “Variation Δ [in %] of the number … (1 min)” value was 91%, the “Variation Δ [in %] of the number … (2 h)” value is given as 5% and the “Variation Δ [in %] of the number … (48 h)” value came to 88%. For the same compound, in assay [1] (0.5 mM), the “Variation Δ [in %] of the number … (1 min)” value was 73%, the “Variation Δ [in %] of the number … (2 h)” value was found to be 1% and the “Variation Δ [in %] of the number … (48 h)” value worked out at 87%. Besides, in assay [1] (1.0 mM), the “Variation Δ [in %] of the number … (1 min)” value came out at 25%, the “Variation Δ [in %] of the number … (2 h)” value was found to be 0% and the “Variation Δ [in %] of the number … (48 h)” value was 7%.
`N=C(N)NCCCC(NC(=O)C1CCCN1C(=O)C(N)CN)C(=O)NCc1ccccc1` (stereo not drawn) [4.6] (H-[Dap]-Pro-Arg-NHBn; configuration not given here): in assay [1] (0.1 mM), the “Variation Δ [in %] of the number … (1 min)” value was 85%, the “Variation Δ [in %] of the number … (2 h)” value was determined as 68% and the “Variation Δ [in %] of the number … (48 h)” value was 43%. Besides, in assay [1] (0.5 mM), the “Variation Δ [in %] of the number … (1 min)” value was found to be 78%, the “Variation Δ [in %] of the number … (2 h)” value is on record as 42% and the “Variation Δ [in %] of the number … (48 h)” value is given as 0%. Moreover, in assay [1] (1.0 mM), the “Variation Δ [in %] of the number … (1 min)” value came to 68%, the “Variation Δ [in %] of the number … (2 h)” value is given as 35% and the “Variation Δ [in %] of the number … (48 h)” value amounted to 0%.
For the compound `CC(N)C(=O)N1CCCC1C(=O)NC(CCCNC(=N)N)C(=O)NCCc1ccccc1` (stereo not drawn) [4.7] (H-Ala-Pro-Arg-NHPhenethyl; configuration not given here), in assay [1] (0.1 mM), the “Variation Δ [in %] of the number … (1 min)” value is given as 103%, the “Variation Δ [in %] of the number … (2 h)” value stood at 69% and the “Variation Δ [in %] of the number … (48 h)” value stood at 74%. In assay [1] (0.5 mM), the “Variation Δ [in %] of the number … (1 min)” value came out at 91%, the “Variation Δ [in %] of the number … (2 h)” value stood at 0% and the “Variation Δ [in %] of the number … (48 h)” value was determined as 34%. Besides, in assay [1] (1.0 mM), the “Variation Δ [in %] of the number … (1 min)” value came to 105%, the “Variation Δ [in %] of the number … (2 h)” value turned out to be 65% and the “Variation Δ [in %] of the number … (48 h)” value is 3%.
Regarding `COc1ccc(CNC(=O)C(CCCNC(=N)N)NC(=O)C2CCCN2C(=O)C(C)N)cc1` (stereo not shown) [4.8], the “Variation Δ [in %] of the number … (1 min)” value was 85% in assay [1] (0.1 mM), 84% in assay [1] (0.5 mM) and 100% in assay [1] (1.0 mM). The results for the “Variation Δ [in %] of the number … (2 h)” value in assay [1] (0.1 mM), in assay [1] (0.5 mM) and in assay [1] (1.0 mM) were 37%, 90% and 58%, respectively. Besides, the “Variation Δ [in %] of the number … (48 h)” value in assay [1] (0.1 mM) is reported as 132%; in assay [1] (0.5 mM), 78%; in assay [1] (1.0 mM) it was 32%.
As for `C[C@H](N=C(N(C)C)N(C)C)C(=O)N1CCC[C@@H]1C(=O)N[C@@H](CCCNC(=N)N)C(=O)NCc1ccccc1` [4.11], in assay [1] (0.1 mM), the “Variation Δ [in %] of the number … (1 min)” value is 105%, the “Variation Δ [in %] of the number … (2 h)” value was found to be 75% and the “Variation Δ [in %] of the number … (48 h)” value was 96%. Moreover, in assay [1] (0.5 mM), the “Variation Δ [in %] of the number … (1 min)” value was 105%, the “Variation Δ [in %] of the number … (2 h)” value is listed as 16% and the “Variation Δ [in %] of the number … (48 h)” value stood at 22%. Moreover, in assay [1] (1.0 mM), the “Variation Δ [in %] of the number … (1 min)” value amounted to 104%, the “Variation Δ [in %] of the number … (2 h)” value was found to be 7% and the “Variation Δ [in %] of the number … (48 h)” value was determined as 0%.
Turning to `CSCC[C@H](NC(=O)[C@H](CCC(=O)O)NC(=O)[C@H](CCC(=O)O)NC(C)=O)C(=O)N[C@@H](CCC(N)=O)C(=O)N[C@@H](CCCNC(=N)N)C(=O)N[C@@H](CCCNC(=N)N)C(N)=O` [Product A, Ac-Glu-Glu-Met-Gln-Arg-Arg-NH2, reference compound] (Ac-EEMQRR-NH2), the “Variation Δ [in %] of the number … (1 min)” value came to 103% in assay [1] (0.05 mM), 103% in assay [1] (0.1 mM), 106% in assay [1] (0.5 mM) and 99% in assay [1] (1.0 mM). For the same compound, the “Variation Δ [in %] of the number … (2 h)” value in assay [1] (0.05 mM) was found to be 96%; in assay [1] (0.1 mM), 120%; in assay [1] (0.5 mM), 91%; in assay [1] (1.0 mM), 88%. Besides, in assay [1] (result in words), the “muscle-relaxing effect / activity profile with regard to muscle relaxation” value was “too weak and too inconstant”. In assay [2], the “acts weaker than Botox (factor)” value is 5000 times.

Values taken from patent publication US7964630B2, “Topical application agents against mimic and age-related wrinkles” (DSM IP Assets B.V., priority 2004, dated 2011).
